Patent US10213392B2, “Pharmaceutical composition for use in medical and veterinary ophthalmology” (Mitotech SA, priority 2009, dated 2019)
Entries after “also recorded” stand apart in the source; their conditions may differ.

How the values were obtained:
[1] = Stability of SkQ1 in solutions containing benzalkonium chloride (storage 24 hours at room temperature, HPLC-MS/MS); type: physicochemical; settings: for Determined concentration of SkQ1 in 24 hours: 10 mM sodium phosphate pH 6.5, 0.9% NaCl
Procedure: (§1) Materials and Method for Quantitative Detection of SkQ1
(§2) Analysis is carried out by high-performance liquid chromatography with MS/MS detection.
(§3) 100 μL of the internal standard solution is placed into a 10 ml flask, 5 ml of the water-ethanol solution is added and stirred for 11 min. 500 μL of sample solution is added to 0.1 ml of a 0.5 M solution of 3-chloroperbenzoic acid in ethanol, and the volume is adjusted to the mark with ethanol-water solution and stirred for 30 min. 1 ml of the resulting solution is transferred into a chromatographic vial.
(§4) The chromatographic conditions are as follows: The device used is a Waters ACQUITY UPLC®. The column used is steel, 2.1×50 mm, filled with sorbent Acquity BEH C18, 1.7 μm (Waters, P/N 186002350) or equivalent. The column temperature is 35° C. The mobile phase is eluent A: 20 mM solution of formic acid in 5% aqueous acetonitrile and eluent B: 20 mM solution of formic acid in aqueous acetonitrile. The flow rate is 0.5 ml/min. The volume of injection is the total loop (about 11 μL). The elution mode is a gradient of eluents A and B according to Table 4.
(§5) The time of the analysis is about 5 min. The detector is a Waters TQD (tri-quadrupole) for MS/MS.
(§6) The conditions of detection is as follows: The electrospraying mode is positive (ES+). The working mode is monitoring of reactions of settled ions (MRM). The temperature of the ion source is 120° C. The vaporization temperature is 450° C. The cone voltage is 55 V. The capillary voltage is 3.0 kV. The collision gas (CID) is argon. The collision gas flow rate is 0.18 ml/min. The collision gas pressure (CID) is 4.5×10^−3 mbar. The transitions of scans and collision energy are according to Table 5.
(§7) The SkQ1 content in the product (μg/ml) was calculated using the equation:
(§8) [formula] • “S/Ssmpl” is the ratio of peak areas and SkQ1 and SkQ1-d15 in chromatograms of the sample solution; • “S/Sstd” is the ratio of SkQ1 and SkQ1-d15 peak areas in chromatograms of the SS solution; • “a” is the amount of SkQ1 taken to prepare the original standard solution, in mgs; • “W” is the water content and organic solvents in SkQ1 substance taken to prepare the original standard solution, in percent; and • “P” is the SkQ1 content in SkQ1 substance taken to prepare the original standard solution, in percent.

[2] = Stability of SkQ1 in solutions with different prolongators (storage 50 days at room temperature, HPLC-MS/MS); type: physicochemical; settings: for Relative content of SkQ1 after incubation for 50 days: 10 mM sodium phosphate pH 6.5, 0.9% NaCl, 0.01% benzalkonium chloride, room temperature
Procedure: as §1, §2, §3, §4, §5, §6, §7, §8

For Br.CC1=C(C)C(=O)C(CCCCCCCCCC[P+](c2ccccc2)(c2ccccc2)c2ccccc2)=CC1=O [SkQ1], the “Decrease of the concentration of SkQ1” value ([1]; absence of benzalkonium chloride, 24 hours) was 58%, the “Decrease of SkQ1 concentration during storage (in words)” value ([1]; addition of 0.01% benzalkonium chloride, SkQ1 up to 250 nM, 24 hours) was “completely prevented; also recorded: prevents a decrease in the concentration” and the “Determined concentration of SkQ1 in 24 hours” value (“Determined concentration” for short) ([1]; benzalkonium chloride 0 (control) %, added SkQ1 250 nM) was 104 nM. The “Relative content of SkQ1” value ([1]; benzalkonium chloride 0 (control) %, added SkQ1 250 nM, 24 hours) was 42%, the “Determined concentration” value ([1]; benzalkonium chloride 0.01%, added SkQ1 50 nM) was 56 nM and the “Relative content of SkQ1” value ([1]; benzalkonium chloride 0.01%, added SkQ1 50 nM, 24 hours) was 112%. The “Determined concentration” value ([1]; benzalkonium chloride 0.01%, added SkQ1 100 nM) was 97 nM, the “Relative content of SkQ1” value ([1]; benzalkonium chloride 0.01%, added SkQ1 100 nM, 24 hours) was 97% and the “Determined concentration” value ([1]; benzalkonium chloride 0.01%, added SkQ1 180 nM) was 180 nM. The “Relative content of SkQ1” value ([1]; benzalkonium chloride 0.01%, added SkQ1 180 nM, 24 hours) was 100%, the “Determined concentration” value ([1]; benzalkonium chloride 0.01%, added SkQ1 250 nM) was 254 nM and the “Relative content of SkQ1” value ([1]; benzalkonium chloride 0.01%, added SkQ1 250 nM, 24 hours) was 102%. The “Relative content of SkQ1 after incubation for 50 days” value (shortened to “Relative content … for 50 days”) ([2]; 0.2% HPMC) was 93%, the “Effect of prolongator on SkQ1 concentration during storage (in words)” value ([2]; 0.2% HPMC, 50 days at room temperature) was “stabilizes the concentration” and the “Relative content … for 50 days” value ([2]; 0.2% MC) was 79%. For the same compound, the “Relative content … for 50 days” value ([2]; control (no prolongator)) was 83%.
